Molecules are shown by their SMILES.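 A five-concentration, 48-hour dose response in 96-well plates underlies each endpoint, interpolated linearly between surrounding concentrations. GI50 marks 50% less growth. Definition used: TGI = concentration required for complete inhibition of growth.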

We go through eight compounds from PubChem BioAssay (NCI).

Among the test systems are HL-60(TB) leukemia; SF-539 CNS; NCI-H522 lung; SF-268 CNS; NCI-H23 lung; SK-MEL-28 melanoma; SK-OV-3 ovarian; OVCAR-5 ovarian; 786-0 renal; K-562 leukemia.
Test in all cases: NCI-60 cell line screen, 48 h

For the compound `CCOC(=O)/C(C#N)=C1\SS/C(=C(/C#N)C(=O)OCC)S1`, the GI50 is 22.6 µM in the assay on HL-60(TB) leukemia; 22.2 µM with SF-539 CNS; 2.47 µM in the assay on NCI-H522 lung; 20.5 µM with SF-268 CNS; 23.5 µM in the assay with NCI-H23 lung; 18.9 µM with SK-MEL-28 melanoma. For the same compound, the GI50 with SK-OV-3 ovarian is over 100 µM; with OVCAR-5 ovarian, 22.4 µM; in the assay on 786-0 renal it was 19.2 µM; in the assay on K-562 leukemia, 7.99 µM. Further, the TGI was found to be 63 µM in the assay with HL-60(TB) leukemia; 42.8 µM in the assay with SF-539 CNS; 7.59 µM with NCI-H522 lung; 41 µM with SF-268 CNS; 61.2 µM in the assay on NCI-H23 lung; 34.1 µM in the assay on SK-MEL-28 melanoma. The TGI in the assay on SK-OV-3 ovarian is over 100 µM; in the assay with OVCAR-5 ovarian, 42.8 µM; with 786-0 renal, 34.1 µM; in the assay with K-562 leukemia it was over 100 µM.

For the compound `Cc1ccc(-c2nc(N3CCNCC3)c3oc(-c4ccccc4)nc3n2)cc1`, the GI50 in the assay with HL-60(TB) leukemia is 1.43 µM; in the assay with SF-539 CNS, 1.78 µM; in the assay with NCI-H522 lung, 1.64 µM; in the assay with SF-268 CNS it was 2.07 µM; with NCI-H23 lung, 3.07 µM; in the assay on SK-MEL-28 melanoma, 1.91 µM. Moreover, the GI50 with SK-OV-3 ovarian is 15.7 µM; in the assay with OVCAR-5 ovarian, 1.68 µM; with 786-0 renal it was 1.77 µM; in the assay with K-562 leukemia, 1.61 µM. The TGI in the assay on HL-60(TB) leukemia worked out at 3.09 µM; in the assay with SF-539 CNS, 3.28 µM; in the assay on NCI-H522 lung it was 3.43 µM; in the assay with SF-268 CNS it was 5.07 µM; in the assay on NCI-H23 lung, 16.7 µM; in the assay on SK-MEL-28 melanoma, 3.39 µM. For the same compound, the TGI in the assay on SK-OV-3 ovarian was found to be 29.5 µM; in the assay with OVCAR-5 ovarian, 3.36 µM; in the assay with 786-0 renal it was 3.25 µM; in the assay on K-562 leukemia, 3.55 µM.

As for `Cc1nc(-c2cnc(NC(C)C)n(C)c2=O)ccc1Oc1ccnc(-c2cnn(C)c2)c1`, the GI50 in the assay on HL-60(TB) leukemia was 4.31 µM; in the assay with SF-539 CNS, 7.5 µM; with NCI-H522 lung, 5.77 µM; with SF-268 CNS, 23 µM; with NCI-H23 lung, 13.3 µM; in the assay on SK-MEL-28 melanoma it was 14.2 µM. Further, the GI50 is 23.5 µM with SK-OV-3 ovarian, 19.4 µM with OVCAR-5 ovarian, 25.7 µM with 786-0 renal and 1.64 µM in the assay with K-562 leukemia. For the same compound, the TGI in the assay with HL-60(TB) leukemia was 26.6 µM; in the assay on SF-539 CNS, 46.8 µM; in the assay on NCI-H522 lung it was 71.9 µM; in the assay on SF-268 CNS, over 100 µM; with NCI-H23 lung, over 100 µM; in the assay on SK-MEL-28 melanoma, over 100 µM. Besides, the TGI is over 100 µM in the assay on SK-OV-3 ovarian, over 100 µM in the assay with OVCAR-5 ovarian, over 100 µM in the assay on 786-0 renal and 9.33 µM in the assay with K-562 leukemia.

On to `O=C(N/C(=C\c1ccccc1Cl)c1nc2ccccc2[nH]1)c1ccccc1`, for which the TGI with HL-60(TB) leukemia is 71.4 µM; in the assay with SF-539 CNS, over 100 µM; in the assay with NCI-H522 lung, 72.5 µM; with SF-268 CNS, over 100 µM; in the assay on NCI-H23 lung, over 100 µM; in the assay with SK-MEL-28 melanoma, over 100 µM. Besides, the TGI with SK-OV-3 ovarian, in the assay with OVCAR-5 ovarian, with 786-0 renal and with K-562 leukemia was over 100 µM each time.

Regarding `COC(=O)C1C(=O)O[C@@H](c2ccc(OC)c(OC)c2OC)C1C(=O)OC` (mixture of isomers), the TGI with HL-60(TB) leukemia, with SF-539 CNS, in the assay with NCI-H522 lung, in the assay with SF-268 CNS, in the assay with NCI-H23 lung and in the assay with SK-MEL-28 melanoma was over 100 µM in each case. For the same compound, the TGI in the assay with SK-OV-3 ovarian, in the assay with OVCAR-5 ovarian, with 786-0 renal and in the assay with K-562 leukemia was over 100 µM in each case.

Consider `COc1cccc(C2=C(c3cn(C)c4cc(F)ccc34)C(=O)NC2=O)c1`, for which the GI50 is 13.6 µM in the assay on HL-60(TB) leukemia; over 25 µM with SF-539 CNS; over 15.9 µM with NCI-H522 lung; over 22.2 µM in the assay on SF-268 CNS; over 25 µM with NCI-H23 lung; over 25 µM in the assay with SK-MEL-28 melanoma. Besides, the GI50 with SK-OV-3 ovarian is over 25 µM; in the assay on OVCAR-5 ovarian it was over 25 µM; in the assay with 786-0 renal it was over 18.7 µM; in the assay on K-562 leukemia it was 12.4 µM. The TGI in the assay on HL-60(TB) leukemia, with SF-539 CNS, with NCI-H522 lung, with SF-268 CNS, in the assay with NCI-H23 lung and with SK-MEL-28 melanoma was over 25 µM in each case. The TGI with SK-OV-3 ovarian, in the assay on OVCAR-5 ovarian, in the assay with 786-0 renal and in the assay with K-562 leukemia was over 25 µM in each case.

As to `CCCCCCCCCCCCCCCCCCOc1ccccc1CC(=O)OCC[N+](CC)(CC)CC`, the GI50 with HL-60(TB) leukemia is 0.926 µM; in the assay with SF-539 CNS, 1.62 µM; in the assay with NCI-H522 lung, 1.53 µM; with SF-268 CNS, 1.48 µM; in the assay with NCI-H23 lung it was 1.16 µM; with SK-MEL-28 melanoma it was 1.9 µM. Moreover, the GI50 is 3 µM in the assay with SK-OV-3 ovarian, 2 µM with OVCAR-5 ovarian, 1.64 µM in the assay with 786-0 renal and 1.5 µM in the assay with K-562 leukemia. Also, the TGI in the assay on HL-60(TB) leukemia worked out at 2.78 µM; in the assay with SF-539 CNS it was 5.82 µM; with NCI-H522 lung it was 6.84 µM; in the assay with SF-268 CNS, 6.32 µM; with NCI-H23 lung, 4.09 µM; with SK-MEL-28 melanoma, 7.55 µM. Moreover, the TGI in the assay on SK-OV-3 ovarian came to 12.1 µM; in the assay on OVCAR-5 ovarian it was 8.52 µM; in the assay on 786-0 renal, 7.54 µM; in the assay on K-562 leukemia, 50 µM.

As to `Cc1ccc(-c2nc3cc(Cl)c(Cl)cc3nc2C#N)cc1`, the GI50 in the assay with HL-60(TB) leukemia, with SF-539 CNS, in the assay on NCI-H522 lung, in the assay with SF-268 CNS, in the assay with NCI-H23 lung and in the assay on SK-MEL-28 melanoma was over 100 µM in each case. The GI50 in the assay on SK-OV-3 ovarian is over 100 µM; in the assay with OVCAR-5 ovarian it was 46.2 µM; with 786-0 renal, 47.5 µM; in the assay with K-562 leukemia, over 100 µM. Further, the TGI with HL-60(TB) leukemia, in the assay on SF-539 CNS, in the assay with NCI-H522 lung, in the assay on SF-268 CNS, in the assay with NCI-H23 lung and with SK-MEL-28 melanoma was over 100 µM in each case. For the same compound, the TGI with SK-OV-3 ovarian, with OVCAR-5 ovarian, in the assay on 786-0 renal and with K-562 leukemia was over 100 µM each time.
